The test system of the first experiment is contracted rat aorta. Briefly: In vitro rat aorta assay, relaxation of KCl-contracted aorta strips. The class given is cell-based. Particulars: rat thoracic aorta strips contracted with 50 mM KCl, 1.25 mM CaCl2; concentration at which residual contraction is 50% of maximum. As to the method: Strips of thoracial rat aortae (without aortic arch, helically cut; length 1-1.5 cm; width about 2 mm) were place in an organ bath [20 ml; Krebs Ringer medium bubbled with O2 /CO2 (95/5%) at 37` C.]. A resting tension of 0.5 g was applied and the preparations were equilibrated during 100 min (fresh buffer solution every 20 min). The strips were isotonically contracted with 50 mM KCl (equimolar part of NaCl in buffer omitted) in the presence of 1.25 mM CaCl2.
Drug-induced relaxation was tested at increasing concentration (half log steps), till maximal or full relaxation (corresponding to basal precontraction value of organ length) had been reached.
Responses were calculated as change in organ length relatively to maximal displacement by contraction, EC50 values corresponding to the drug concentration at which residual contraction is 50% of maximum.
`COC(=O)C1=C(C)NC(C)=C(C(=O)OC)C1c1ccccc1OCCCCCCO[N+](=O)[O-]` [Example XXX, 3,5-Dimethoxycarbonyl-2,6-dimethyl-4-[2-(6-nitroxyhexyloxy)phenyl]-1,4-dihydropyridine] gave an EC50 of 9 nM.
The same measure, in the same setting: as for `CCOC(=O)C1=C(C)NC(C)=C(C(=O)OC)C1c1ccccc1OCCCO[N+](=O)[O-]` (stereo not shown) [Example XXVI, 2,6-Dimethyl-3-ethoxycarbonyl-5-methoxycarbonyl-4-[2-(3-nitroxypropoxy)phenyl]-1,4-dihydropyridine], the figure is 12 nM; as for `CCOC(=O)C1=C(C)NC(C)=C(C(=O)OCC)C1c1ccccc1OCCCCCCCCCCO[N+](=O)[O-]` [Example XXV, 3,5-Diethoxycarbonyl-2,6-dimethyl-4-[2-(10-nitroxy-decyloxy)phenyl]-1,4-dihydropyridine], 67 nM; as for `CCOC(=O)C1=C(C)NC(C)=C(C(=O)OCC)C1c1ccccc1OCCO[N+](=O)[O-]` [Example XXI, 3,5-Diethoxycarbonyl-2,6-dimethyl-4-[2-(2-nitroxy-ethoxy)phenyl]-1,4-dihydropyridine], 14 nM.
The same measure, in the same setting: under `CCOC(=O)C1=C(C)NC(C)=C(C(=O)OCC)C1c1ccccc1OC[C@H]1CC[C@H](CO[N+](=O)[O-])CC1` [Example XXIV, 3,5-Diethoxycarbonyl-2,6-dimethyl-4-[2-[(4-nitroxymethyl-(trans)-cyclohexyl)methoxy]phenyl]-1,4-dihydropyridine] stands 7.8 nM; under `COC(=O)C1=C(C)NC(C)=C(C(=O)OC)C1c1ccccc1OC[C@@H](C)CO[N+](=O)[O-]` [Example XXXVIII], 75 nM.
Still for that read-out and setting: under `CCOC(=O)C1=C(C)NC(C)=C(C(=O)OC)C1c1ccccc1OCC(C)(C)CO[N+](=O)[O-]` (stereo not shown) [Example XXIII, 2,6-Dimethyl-4-[2-(2,2-dimethyl-3-nitroxypropoxy)-phenyl]-3-ethoxycarbonyl-5-methoxycarbonyl-1,4-dihydro-pyridine×H2 O] stands 28 nM; under `CCOC(=O)C1=C(C)NC(C)=C(C(=O)OCC)C1c1ccccc1OCCCO[N+](=O)[O-]` [Example XXVIII], 7.7 nM; under `CCOC(=O)C1=C(C)NC(C)=C(C(=O)OCC)C1c1ccccc1OCC(C)(C)CO[N+](=O)[O-]` [Example XXII, 3,5-Diethoxycarbonyl-2,6-dimethyl-4-[2-(2,2-dimethyl-3-nitroxypropoxy)-phenyl]-1,4-dihydropyridine], 60 nM.
In turn, `COC(=O)C1=C(C)NC(C)=C(C(=O)OC)C1c1ccccc1OCC(C)O[N+](=O)[O-]` (stereo not shown) [Example XXXIII, 3,5-Dimethoxycarbonyl-2,6-dimethyl-4-{2-[2-nitroxypropyloxy)phenyl}-1,4-dihydropyridine] showed an EC50 of 16 nM.
Compound `COC(=O)C1=C(C)NC(C)=C(C(=O)OC)C1c1ccccc1OCCCCCCCCO[N+](=O)[O-]` [Example XXXV, 2,6-Dimethyl-3,5-dimethoxycarbonyl-4-[2-(8-nitroxyoctyloxy)phenyl]-1,4-dihydropyridine] returned an EC50 of 5 nM.
As for `CCOC(=O)C1=C(C)NC(C)=C(C(=O)OCC)C1c1ccccc1OCCOCCOCCO[N+](=O)[O-]` [Example XX, 3,5-Diethoxycarbonyl-2,6-dimethyl-4-(2-{2-[2-(2-nitroxy-ethoxy)ethoxy]ethoxy}-phenyl)-1,4-dihydropyridine], a half-maximal effect (EC50) was put at 38 nM.
Same read-out and setting: as for `COC(=O)C1=C(C)NC(C)=C(C(=O)OC)C1c1ccccc1OC1CCCCC1O[N+](=O)[O-]` (stereo not shown) [Example XXXVII, 3,5-Dimethoxycarbonyl-2,6-dimethyl-4-[2-(2-nitroxycyclohexoxy)phenyl]-1,4-dihydropyridine×methanol], the figure is 68 nM.
Compound `COC(=O)C1=C(C)NC(C)=C(C(=O)OC)C1c1cc(Cl)ccc1OCCO[N+](=O)[O-]` [Example XV] gave an EC50 of 85 nM.
On to `COC(=O)C1=C(C)NC(C)=C(C(=O)OC)C1c1cccc(OC)c1OCCO[N+](=O)[O-]` [Example XVII, 3,5-Dimethoxycarbonyl-2,6-dimethyl-4-[3-methoxy-2-(2-nitroxyethoxy)phenyl]-1,4-dihydropyridine×H2 O], for which a half-maximal response (EC50) required 88 nM.
Still for that read-out and setting: under `COC(=O)C1=C(C)NC(C)=C(C(=O)OC)C1c1ccccc1OC[C@H]1CC[C@H](CO[N+](=O)[O-])CC1` [Example XXXII, 3,5-Dimethoxycarbonyl-2,6-dimethyl-4-{2-[4-nitroxymethyl(trans)cyclohexylmethoxy]phenyl}-1,4-dihydropyridine] stands 6.5 nM; under `COC(=O)C1=C(C)NC(C)=C(C(=O)OC)C1c1ccccc1OCCO[N+](=O)[O-]` [Example VII, 3,5-Dimethoxycarbonyl-2,6-dimethyl-4-[2-(2-nitroxy-ethoxy)phenyl]-1,4-dihydropyridine], 59 nM.
`CCOC(=O)C1=C(C)NC(C)=C(C(=O)OC)C1c1ccccc1OCCCCO[N+](=O)[O-]` (stereo not shown) [Example XXIX, 2,6-Dimethyl-3-ethoxycarbonyl-5-methoxycarbonyl-4-[2-(4-nitroxybutoxy)phenyl]-1,4-dihydropyridine×2H2 O] showed an EC50 of 2.6 nM.
Regarding `COC(=O)C1=C(C)NC(C)=C(C(=O)OC)C1c1ccccc1OCCCO[N+](=O)[O-]` [Example XXVII, 3,5-Dimethoxycarbonyl-2,6-dimethyl-4-[2-(3-nitroxypropoxy)phenyl]-1,4-dihydropyridine], the EC50 was 5.7 nM.
The same measure, in the same setting: as for `COC(=O)C1=C(C)NC(C)=C(C(=O)OC)C1c1cc(Br)ccc1OCCO[N+](=O)[O-]` [XIX, 4-[5-Bromo-2-(2-nitroxyethoxy)phenyl]-3,5-dimethoxy-carbonyl-2,6-dimethyl-1,4-dihydropyridine], the figure is 80 nM.
In the case of `COC(=O)C1=C(C)NC(C)=C(C(=O)OC)C1c1cc([N+](=O)[O-])ccc1OCCO[N+](=O)[O-]` [Example XIV, 3,5-Dimethoxycarbonyl-2,6-dimethyl-4-[2-(2-nitroxy-ethoxy)-5-nitrophenyl]-1,4-dihydropyridine], a half-maximal effect (EC50) was put at 80 nM.

The next experiment deals with arterial blood pressure. Briefly: Anesthetized rabbit experiments, lowering of arterial blood pressure. Particulars: end of 10 min i.v. infusion at highest dose tested (150-200 μg×kg^-1×min^-1), decrease as percentage of basal value. It is filed as in vivo, New Zealand white rabbits. Details: key: Inactive: No decrease or decrease less than 5%; Active: Decrease between 5 and 40%; Very Active: Decrease greater than 40%. As to the method: […]
Animals Anesthesia and Surgical Procedures
New Zealand white rabbits (2.5-3 kg) were anesthetized (30 mg×kg^-1 pentobarbitone, i.v., supplemetal doses as needed). Tracheotomy was performed, and an intra-tracheal cannula was inserted. No artificial ventilation was applied and body temperature was maintained at 37°-38° C.
Left ventricular pressure (LVP) was measured (millar Mikro-Tip catheter via the right carotid artery with transducer in the left ventricle). The LVP signal was differentiated electronically to obtain the rate of change of LVP (LV dP/dt). The heart rate (HR) was derived from the LVP pulse signal. The jugular vein was cannulated for infusion of the test compounds. Aortic blood pressure (SAP and DAP) was monitored (Gould-Statham pressure transducer) by inserting a polyethylene catheter filled with heparin (50 IU×ml^-1) through the femoral artery into the abdominal aorta. Heparin (150 IU×kg^-1, i.v.) was administered to prevent blood clotting.
After completion of surgical procedures, the rabbits were allowed to recover for 15 minutes before drug administration was started.
Infusion of Test Compounds and Test Protocol
Drugs were infused at constant rate (0.5 ml×min^-1) for 10 minutes at various doses, resulting in a typical dose range of 2.0, 20.0 and 200 μg×kg^-1 ×min^-1 (2.5 kg rabbit).
Due to poor solubility, 1 mg×ml^-1 solutions of all the compounds tested were prepared in Intralipid^(R) 10%, containing 10% (v/v) dimethyl sulfoxide (DMSO). […] At the infusion of lower doses, the 1 mg×ml^-1 stock solutions were diluted with Intralipid^(R) 10%.
The presented data are based on the effects obtained at the end of the 10 min infusion period at the highest dose tested (150-200 μg×kg^-1 'min^-1).
The indicated ratings are referring to the effects (decrease, defined as percentage of basal value before infusion of the drug) on arterial blood pressure as follows: […]
For “2,6-Dimethyl-3-methyloxycarbonyl-5-methyloxycarbonyl-4-[2-(nitroxyhexyloxyphenyl)]-1,4-dihydropyridine [Example XXXI]”, the “Activity with regard to the lowering of blood pressure” value was “Active”.
Still for that read-out and setting: under `CCOC(=O)C1=C(C)NC(C)=C(C(=O)OCC)C1c1ccc(OC(=O)CCCO[N+](=O)[O-])cc1` [Example I, 3,5-Diethoxycarbonyl-2,6-dimethyl-4-[4-(3-nitroxypropyl)carbonyloxy]phenyl-1,4-dihydropyridine] stands “Active”.
On the same count and under the same terms, under `CCOc1cccc(C2C(C(=O)OC)=C(C)NC(C)=C2C(=O)OC)c1OCCO[N+](=O)[O-]` [Example XVIII, 3,5-Dimethoxycarbonyl-2,6-dimethyl-4-[3-ethoxy-2-(2-nitroxyethoxy)phenyl]-1,4-dihydropyridine×H2 O] stands “Active”; under `CCOC(=O)C1=C(C)NC(C)=C(C(=O)OCC)C1c1ccccc1OCCOCCOCCO[N+](=O)[O-]` [Example XX, 3,5-Diethoxycarbonyl-2,6-dimethyl-4-(2-{2-[2-(2-nitroxy-ethoxy)ethoxy]ethoxy}-phenyl)-1,4-dihydropyridine], “Active”; under `COC(=O)C1=C(C)NC(C)=C(C(=O)OC)C1c1cc(Cl)ccc1OCCO[N+](=O)[O-]` [Example XV], “Active”.
As for `COC(=O)C1=C(C)NC(C)=C(C(=O)OC)C1c1cccc(OC)c1OCCO[N+](=O)[O-]` [Example XVII, 3,5-Dimethoxycarbonyl-2,6-dimethyl-4-[3-methoxy-2-(2-nitroxyethoxy)phenyl]-1,4-dihydropyridine×H2 O], the “Activity with regard to the lowering of blood pressure” value was “Active”.
Same read-out and setting: as for `COC(=O)C1=C(C)NC(C)=C(C(=O)OC)C1c1cc(Br)ccc1OCCO[N+](=O)[O-]` [XIX, 4-[5-Bromo-2-(2-nitroxyethoxy)phenyl]-3,5-dimethoxy-carbonyl-2,6-dimethyl-1,4-dihydropyridine], the entry is “Active”.

The term EC50 denotes the concentration at which the effect is half-maximal.

These data come from patent publication US5378718A, “1,4-dihydropyridine derivatives” (Cedona Pharmaceuticals B.V., priority 1990, dated 1995).
